The record followed here is patent US20110053925A1, “Hydroxamate-Based Inhibitors of Deacetylases” (Novartis AG, priority 2009, published 2011).

T1 sequence (Q13547 whole entry, species assumed): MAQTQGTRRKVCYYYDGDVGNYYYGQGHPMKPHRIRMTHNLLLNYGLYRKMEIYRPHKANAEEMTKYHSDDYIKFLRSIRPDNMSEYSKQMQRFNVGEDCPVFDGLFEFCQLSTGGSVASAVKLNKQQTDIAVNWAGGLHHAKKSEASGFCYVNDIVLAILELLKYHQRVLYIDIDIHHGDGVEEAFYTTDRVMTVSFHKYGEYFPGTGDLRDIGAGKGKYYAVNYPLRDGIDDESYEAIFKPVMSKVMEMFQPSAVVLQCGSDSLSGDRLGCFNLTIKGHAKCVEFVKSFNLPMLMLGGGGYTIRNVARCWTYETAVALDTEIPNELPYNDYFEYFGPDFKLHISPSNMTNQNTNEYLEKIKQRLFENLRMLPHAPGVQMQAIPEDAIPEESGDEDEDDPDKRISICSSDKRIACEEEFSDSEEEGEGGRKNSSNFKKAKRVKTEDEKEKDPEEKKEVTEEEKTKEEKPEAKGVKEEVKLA

This assay addresses T1, HDAC-1 (Homo sapiens, UniProt Q13547).
T1 construct: made in house; host or cells: Sf9 or Sf21 insect cells (baculovirus, donor vector pFB-GSTX3)
In words: HDAC Inhibition Assay (purified GST-HDAC protein). The assay is classed as biochemical. The source says:
The baculovirus donor vector pFB-GSTX3 is used to generate a recombinant baculovirus that can express the HDAC polypeptide. Transfer vectors containing the HDAC coding region are transfected into the DH10Bac cell line (GIBCO) and plated on selective agar plates. Colonies without insertion of the fusion sequence into the viral genome (carried by the bacteria) are blue. Single, white colonies are picked and viral DNAs (bacmid) are isolated from the bacteria by standard plasmid purification procedures. Sf9 cells or Sf21 (American Type Culture Collection) cells are then transfected in […] flasks with the viral DNA using Cellfectin reagent.
Virus-containing media is collected from the transfected cell culture and used for infection to increase its titer. Virus-containing media obtained after two rounds of infection is used for large-scale protein expression. For large-scale protein expression 100 cm^2 round tissue culture plates are seeded with 5×10^7 cells/plate and infected with 1 mL of virus-containing media (at an approximately MOI of 5). After 3 days, the cells are scraped off the plate and centrifuged at 500 rpm for 5 minutes. Cell pellets from 10-20, 100 cm^2 plates, are re-suspended in 50 mL of ice-cold lysis buffer (25 mM tris-HCl, pH 7.5, 2 mM EDTA, 1% NP-40, 1 mM DTT, 1 mM P MSF). The cells are stirred on ice for 15 minutes and then centrifuged at 5,000 rpms for 20 minutes.
The centrifuged cell lysate is loaded onto a 2 mL glutathione-sepharose column (Pharmacia) and is washed thrice with 10 mL of 25 mM tris-HCl, pH 7.5, 2 mM EDTA, 1 mM DTT, 200 mM NaCl. The GST-tagged proteins are then eluted by 10 applications (1 mL each) of 25 mM tris-HCl, pH 7.5, 10 mM reduced-glutathione, 100 mM NaCl, 1 mM DTT, 10% glycerol and stored at −70° C.
HDAC assays with purified GST-HDAC protein are carried out in a final volume of 30 μL containing 15 ng of GST-HDAC protein, 20 mM tris-HCl, pH 7.5, 1 mM MnCl2, 10 mM MgCl2, 1 mM DTT, 3 μg/mL poly(Glu,Tyr) 4:1, 1% DMSO, 2.0 μM ATP (γ-[^33P]-ATP 0.1 μCi). The activity is assayed in the presence or absence of inhibitors. […] Subsequently, […] of the reaction mixture are transferred onto EMMOBILON-PVDF membrane (Millipore) previously soaked for 5 minutes with methanol, rinsed with water, then soaked for 5 minutes with 0.5% H3PO4 and mounted on vacuum manifold with disconnected vacuum source. After spotting all samples, a vacuum is connected and each well rinsed with 200 μL 0.5% H3PO4. Membranes are removed and washed four times on a shaker with 1.0% H3PO4, once with ethanol. Membranes are counted after drying at ambient temperature, mounting in Packard TopCount 96-well frame, and addition of 10 μL/well of MICROSCINT™ (Packard).
• Input: 3×4 μL stopped assay on IMMOBILON membrane, not washed • Background (3 wells): assay with H2O instead of enzyme • Positive control (4 wells): 3% DMSO instead of compound • Bath control (1 well): no reaction mix
In each experiment, the actual inhibition by reference compound is used for normalization of IC50 values to the basis of an average value of the reference inhibitor:
Normalized IC50=measured IC50 average ref. IC50/measured ref. IC50
In turn, `O=C(/C=C/c1ccc(CN2CCN(S(=O)(=O)c3ccccc3)c3ccccc32)cc1)NO` [Compound 58, (E)-3-[4-(4-Benzenesulfonyl-3,4-dihydro-2H-quinoxalin-1-ylmethyl)-phenyl]-N-hydroxy-acrylamide] had an IC50 of 290 nM.

Consider `O=C(/C=C/c1ccc(CN2CCC(CC(=O)NO)(c3ccc(Cl)cc3)CC2)cc1)NO` [Compound 45, (E)-3-{4-[4-(4-Chloro-phenyl)-4-hydroxycarbamoylmethyl-piperidin-1-ylmethyl]-phenyl}-N-hydroxy-acrylamide], for which the IC50 was 110 nM.

On to `O=C(/C=C/c1ccc(CN2CCN(S(=O)(=O)c3ccc(F)cc3)CC2)cc1)NO` [Compound 57, (E)-3-{4-[4-(4-Fluoro-benzenesulfonyl)-piperazin-1-ylmethyl]-phenyl}-N-hydroxy-acrylamide], for which the IC50 was 260 nM.

As for `O=C(/C=C/c1ccc(CN2CCN(S(=O)(=O)c3ccccc3)CC2)cc1)NO` [Compound 50, (E)-3-[4-(4-Benzenesulfonyl-piperazin-1-ylmethyl)-phenyl]-N-hydroxy-acrylamide], the midpoint of inhibition, the IC50, lay at 230 nM.

For the compound `O=C(/C=C/c1ccc(CN2CCC3(CC2)OCCO3)cc1)NO` [Compound 48, (E)-3-[4-(1,4-Dioxa-8-aza-spiro[4.5]dec-8-ylmethyl)-phenyl]-N-hydroxy-acrylamide], the IC50 is 130 nM.

With `CCOC(=O)N1CCN(Cc2ccc(/C=C/C(=O)NO)cc2)CC1` [Compound 28, 4-[4-((E)-2-Hydroxycarbamoyl-vinyl)-benzyl]-piperazine-1-carboxylic acid ethyl ester], inhibition was half-maximal at 170 nM (IC50).

As to `CC1(C)c2[nH]c3ccccc3c2CCN1Cc1ccc(/C=C/C(=O)NO)cc1` [Compound 22, (E)-3-[4-(1,1-Dimethyl-1,3,4,9-tetrahydro-beta-carbolin-2-ylmethyl)-phenyl]-N-hydroxy-acrylamide], the midpoint of inhibition, the IC50, lay at 150 nM.

In turn, `O=C(/C=C/c1ccc(CN2CCC3(CC2)NC(=O)N(CC2CC2)C3=O)cc1)NO` [Compound 37, (E)-3-[4-(3-Cyclopropylmethyl-2,4-dioxo-1,3,8-triaza-spiro[4.5]dec-8-ylmethyl)-phenyl]-N-hydroxy-acrylamide] gave an IC50 of less than 430 nM.

In turn, `O=C(/C=C/c1ccc(CN2CCC(c3cc4ccccc4o3)CC2)cc1)NO` [Compound 35, (E)-3-[4-(4-Benzofuran-2-yl-piperidin-1-ylmethyl)-phenyl]-N-hydroxy-acrylamide] registered an IC50 of 46 nM.

With `CN1C(=O)C2(CCN(Cc3ccc(/C=C/C(=O)NO)cc3)CC2)c2ccccc21` [Compound 43, (E)-N-Hydroxy-3-(4-((1-methyl-2-oxospiro[indoline-3,4′-piperidine]-1′-yl)methyl)phenyl)acrylamide], the IC50 came to 24 nM.

Compound `O=C(/C=C/c1ccc(CN2CCN(C(=O)NCc3ccccc3)c3ccccc32)cc1)NO` [Compound 61, 4-[4-((E)-2-Hydroxycarbamoyl-vinyl)-benzyl]-3,4-dihydro-2H-quinoxaline-l-carboxylic acid benzylamide] came in with a 50% inhibitory concentration (IC50) of 250 nM.

With `O=C(/C=C/c1ccc(CN2CCN(C(=O)c3ccccc3)CC2)cc1)NO` [Compound 51, (E)-3-[4-(4-Benzoyl-piperazin-1-ylmethyl)-phenyl]-N-hydroxy-acrylamide], the IC50 stood at 110 nM.

Consider `CCC(=O)N1CCN(Cc2ccc(/C=C/C(=O)NO)cc2)CC1` [Compound 52, (E)-N-Hydroxy-3-[4-(4-propionyl-piperazin-l-ylmethyl)-phenyl]-acrylamide], for which the 50% inhibitory concentration (IC50) came out at 350 nM.

On to `O=C(/C=C/c1ccc(CN2CCCCC2)cc1)NO` [Compound 33, (E)-N-Hydroxy-3-(4-piperidin-1-ylmethyl-phenyl)-acrylamide], for which the midpoint of inhibition, the IC50, lay at 100 nM.

With `O=C(/C=C/c1ccc(CN2CCN(c3nc4ccccc4n3C(=O)c3ccccc3)CC2)cc1)NO` [Compound 31, (E)-3-{4-[4-(1-Benzoyl-1H-benzoimidazol-2-yl)-piperazin-1-ylmethyl]-phenyl}-N-hydroxy-acrylamide], the IC50 came out at 231 nM.
